From US20070010897A1, “Immunochemically modified and sterilized xenografts and allografts” (priority 2005, published 2007)

Experiments:
[1] = tested on: Porcine Parvovirus; assay: Viral inactivation test, Porcine Parvovirus; details: Porcine Parvovirus (NEnv./DNA); single process step (glutaraldehyde or E-beam 17.8 kGy)
[2] = tested on: Reovirus 3; assay: Viral inactivation test, Reovirus 3; details: Reovirus 3 (NEnv./RNA); single process step (glutaraldehyde or E-beam 17.8 kGy)

O=CCCCC=O [Glutaraldehyde, glutaraldehyde]
Log10 Reduction [1]: 1.91 Log10
Log10 Reduction [2]: 4.24 Log10
